Entries after “also recorded” stand apart in the source; their conditions may differ. Values belong to the molecule of their own block, whether it stands above or below them.
Columns and labels:
UMP-CMP kinase [1] = target: T1, UMP-CMP kinase (Homo sapiens, UniProt P30085); assay: Enzymatic activity assay (NMP phosphorylation, TLC of radiolabelled products); format: biochemical; conditions: for ability of the NTP to act as phosphate donor (CDP formed), in words: NTP varied; for phosphorylation of the NMP as substrate (phosphate acceptor), in words: lysates of transfected cells vs vector-transfected cells, FIG. 5A
T1 construct: This cDNA codes for a predicted 196 amino-acid protein; expressed in transfected cells; host or cells: HEK 293 or COS-7 cells transiently transfected with pRc/CMV carrying the UMP-CMP kinase cDNA; crude lysate used
T1 sequence (P30085 1-196): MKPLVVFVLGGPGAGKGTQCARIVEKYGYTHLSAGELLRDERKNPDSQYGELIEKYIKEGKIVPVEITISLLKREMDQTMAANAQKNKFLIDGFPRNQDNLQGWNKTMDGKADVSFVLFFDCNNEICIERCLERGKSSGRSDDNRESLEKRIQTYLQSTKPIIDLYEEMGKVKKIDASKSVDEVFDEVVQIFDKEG
Procedure: Tests were conducted on the enzyme produced by the cDNA.
Since many NMP kinases phosphorylate multiple types of NMPs with varying relative kinetics, a variety of NMPs were tested as substrates.
The most preferred phosphate donor of the kinase was next investigated. […] The amount of CDP formed indicates the ability of each NTP to act as a phosphate donor.
Cell lysates (25 μg total protein) prepared as described for Western blot were added to the following reaction mixture: 83 mM tris-HCl (pH 8.0), 3.3 mM MgCl2, 0.17 M KCl, 6.7 mM NTP, 6.7 mM NMP and 0.1 μCi of the indicated [^3H]-NU (60.4 mCi/mmol). The reaction was carried out at 37° C. for 6 min and terminated with an equal volume of 2 M formic acid. Unlabeled NDP was added (6.7 mM final concentration) and the reactions were dried under a steam of nitrogen. The products were resuspended in distilled H2O and analyzed by thin layer chromatography.
Chromatography was performed by ascending development (dry start) in closed plexiglass chambers at room temperature using 0.25 M KH2PO4 (pH 3.4) as described previously. […] The products were visualized under UV light and identified by co-migration with authentic nucleotides. Spots corresponding to different nucleotides were scraped from the plate and radioactive reaction products were quantified with a multi-purpose liquid scintillation counter.

UMP-CMP kinase [2] = target: T1, UMP-CMP kinase; conditions: Mol. Pharmacol. 56:562-569 (1999), ATP as donor, 30 min; cited from earlier work
HL-60 cells = assay: RT-PCR of UMP-CMP kinase expression and phenotype in differentiating HL-60 cells; format: cell-based, human; conditions: HL-60 cells treated with differentiating agent
Source text: The possibility that UMP-CMP kinase was developmentally regulated as monocytes proceed toward the macrophage phenotype was also investigated. To assess this, human monocytes were isolated and cultered for 10 days as they differentiated into macrophages. RNA was isolated on the day of cell plating and then throughout the culture period. […] These cells are monocytic, but differentiate into macrophage-like cells in the presence of phorbol-12-myristate-13-acetate (PMA) (Murao et al., 1983; Rovera et al., 1979), or into neutrophils in the presence of DMSO (Collins et al., 1975). […] These changes included adhesion and altered cell shape. No change in UMP-CMP kinase expression was detected, however, when assayed by RT-PCR. […] Similarly, no change was detected after DMSO treatment.
Because the cDNA had been cloned from a macrophage library, it was also considered possible that UMP-CMP kinase expression might be developmentally regulated as monocytes proceed toward the macrophage phenotype. To evaluate this possibility, Human monocytes were isolated and cultured for 10 days as they differentiated into macrophages. […] In order to confirm this conclusion, HL-60 cells were employed. […] Similarly, no change in this message was detected after DMSO treatment (data not shown).

[3] = varying Mg^2+ concentrations, FIG. 4

SMILES: Nc1ncnc2c1ncn2[C@@H]1O[C@H](COP(=O)(O)OP(=O)(O)OP(=O)(O)O)[C@@H](O)[C@H]1O [ATP]
ability of the NTP to act as phosphate donor (CDP formed), in words (UMP-CMP kinase [1]; CMP as substrate, FIG. 5B): preferred as phosphate donors over CTP and GTP
phosphorylation of the NMP as substrate (phosphate acceptor), in words (UMP-CMP kinase [1]): Modest

SMILES: O=c1ccn([C@@H]2O[C@H](COP(=O)(O)OP(=O)(O)OP(=O)(O)O)[C@@H](O)[C@H]2O)c(=O)[nH]1 [UTP]
ability of the NTP to act as phosphate donor (CDP formed), in words (UMP-CMP kinase [1]; CMP as substrate, FIG. 5B): preferred as phosphate donors over CTP and GTP

SMILES: C[S+](C)[O-] [DMSO]
change in UMP-CMP kinase expression by RT-PCR (HL-60 cells): no change

SMILES: CCCCCCCCCCCCCC(=O)O[C@@H]1[C@@H](C)[C@@]2(O)[C@@H](C=C(CO)C[C@]3(O)C(=O)C(C)=C[C@@H]23)[C@@H]2C(C)(C)[C@]12OC(C)=O [PMA, phorbol-12-myristate-13-acetate]
change in UMP-CMP kinase expression by RT-PCR (HL-60 cells): No change
phenotypic change of HL-60 cells (HL-60 cells): altered the HL-60 cell phenotype from a suspension cell to an adherent cell; also recorded: induced phenotypic changes

SMILES: Nc1ccn([C@H]2C[C@H](O)[C@@H](COP(=O)(O)O)O2)c(=O)n1 [dCMP]
phosphorylation by the kinase as reported by Van Rompay et al. (UMP-CMP kinase [2]): efficiently phosphorylated

Further lines, with some results ahead:

phosphorylation of the NMP as substrate (phosphate acceptor), in words (UMP-CMP kinase [1]): prefers
SMILES: O=c1ccn([C@@H]2O[C@H](COP(=O)(O)O)[C@@H](O)[C@H]2O)c(=O)[nH]1 [UMP]
phosphorylation by the kinase as reported by Van Rompay et al. (UMP-CMP kinase [2]): efficiently phosphorylated

phosphorylation of the NMP as substrate (phosphate acceptor), in words (UMP-CMP kinase [1]): unable to phosphorylate
SMILES: Nc1nc2c(ncn2[C@@H]2O[C@H](COP(=O)(O)O)[C@@H](O)[C@H]2O)c(=O)[nH]1 [GMP]

reaction efficiency as phosphate donor relative to ATP or UTP (UMP-CMP kinase [1]; CMP as substrate, FIG. 5B): half and approximately half
SMILES: Nc1ccn([C@@H]2O[C@H](COP(=O)(O)O)[C@@H](O)[C@@H]2O)c(=O)n1 [CTP]

phosphorylation of the NMP as substrate (phosphate acceptor), in words (UMP-CMP kinase [1]): only slightly
SMILES: Nc1ncnc2c1ncn2[C@@H]1O[C@H](COP(=O)(O)O)[C@@H](O)[C@H]1O [AMP]

reaction efficiency in the presence of CMP relative to UMP (UMP-CMP kinase [1]): three-fold greater reaction efficiency
phosphorylation of the NMP as substrate (phosphate acceptor), in words (UMP-CMP kinase [1]): prefers
SMILES: Nc1ccn([C@@H]2O[C@H](COP(=O)(O)O)[C@@H](O)[C@H]2O)c(=O)n1 [CMP, Cytidine Monophosphate]
phosphorylation by the kinase as reported by Van Rompay et al. (UMP-CMP kinase [2]): efficiently phosphorylated

Mg^2+ concentration giving maximal UMP-CMP kinase activity (UMP-CMP kinase [1]; [3]): 3 mM
SMILES: [Mg+2] [Mg^2+]
effect of Mg^2+ on UMP-CMP kinase activity, in words (UMP-CMP kinase [1]; [3]): increases UMP-CMP kinase activity in a concentration-dependent manner
